Test results from patent US5604215A, “Steroid sulphatase inhibitors” (Imperial College of Science, Technology and Medicine, priority 1991, dated 1997).
Like-named read-outs stand apart in the source and are kept apart here.

Columns and labels:
[1] = target: T1, steroid sulphatase (Steryl Sulphatase EC 3.1.6.2) in MCF-7 cells (Homo sapiens, UniProt P08842); experiment: Inhibition of Steroid Sulphatase Activity in MCF-7 cells (intact MCF-7 human breast cancer cells, [6,7-^3 H]oestrone-3-sulphate substrate); type: cell-based
T1 construct: intact MCF-7 human breast cancer cells; endogenous in cells; host or cells: MCF-7 human breast cancer cells
T1 sequence (P08842 22-583): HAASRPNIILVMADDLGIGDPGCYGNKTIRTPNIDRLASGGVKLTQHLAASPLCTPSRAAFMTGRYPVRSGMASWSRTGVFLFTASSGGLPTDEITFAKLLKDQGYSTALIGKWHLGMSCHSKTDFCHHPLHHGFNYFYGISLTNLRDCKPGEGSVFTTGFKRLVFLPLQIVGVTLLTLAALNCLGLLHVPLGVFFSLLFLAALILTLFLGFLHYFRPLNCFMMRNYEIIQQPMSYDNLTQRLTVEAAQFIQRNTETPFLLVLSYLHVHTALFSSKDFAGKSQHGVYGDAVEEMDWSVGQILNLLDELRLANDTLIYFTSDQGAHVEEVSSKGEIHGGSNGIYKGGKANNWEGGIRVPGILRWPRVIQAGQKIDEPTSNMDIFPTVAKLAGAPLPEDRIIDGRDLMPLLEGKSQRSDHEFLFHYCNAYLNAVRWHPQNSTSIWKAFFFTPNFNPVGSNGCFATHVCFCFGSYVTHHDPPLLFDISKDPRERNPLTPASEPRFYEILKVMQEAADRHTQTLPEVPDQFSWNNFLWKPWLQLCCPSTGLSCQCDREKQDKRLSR
Experimental: Steroid sulphatase is defined as: Steryl Sulphatase EC 3.1.6.2.
Steroid sulphatase activity was measured in vitro using intact MCF-7 human breast cancer cells. This hormone dependent cell line is widely used to study the control of human breast cancer cell growth. […] Up to 30 replicate 25 cm^2 tissue culture flasks were seeded with approximately 1×10^5 cells/flask using the above medium. Cells were grown to 80% confluency and medium was changed every third day.
Intact monolayers of MCF-7 cells in triplicate 25 cm^2 tissue culture flasks were washed with Earle's Balanced Salt Solution (EBSS from ICN Flow, High Wycombe, U.K.) and incubated for […] at 37° C. with 5 pmol (7×10^5 dpm) [6,7-^3 H]oestrone-3-sulphate (specific activity 60 Ci/mmol from New England Nuclear, Boston, Mass., U.S.A.) in serum-free MEM (2.5 ml) together with 10 μM of each of four oestrone-3-phosphonates:
After incubation each flask was cooled and the medium (1 ml) was pipetted into separate tubes containing [^14 C]oestrone (7×10^3 dpm) (specific activity […] from Amersham International Radiochemical Centre, Amersham, U.K.). The mixture was shaken thoroughly for 30 seconds with toluene (5 ml). […] A portion (2 ml) of the organic phase was removed, evaporated and the ^3 H and ^14 C content of the residue determined by scintillation spectrometry. The mass of oestrone-3-sulphate hydrolysed was calculated from the ^3 H counts obtained (corrected for the volumes of the medium and organic phase used, and for recovery of [^14 C]oestrone added) and the specific activity of the substrate. […] The number of cell nuclei per flask was determined using a Coulter Counter after treating the cell monolayers with Zaponin.
Results are expressed as the mean ±1 S.D. of the total product (oestrone+oestradiol) formed during the incubation period (20 hours) calculated for 10^6 cells and as a percentage reduction (inhibition) over incubations containing no oestrone-3-phosphonate for values showing statistical significance. […]

[2] = target: T1, steroid sulphatase (Steryl Sulphatase EC 3.1.6.2) in MCF-7 cells; experiment: as above; type: cell-based; settings: for Steroid Sulphatase Activity in MCF-7 cells in the presence of oestrone-3-sulphonates: 10 μM, mean ± 1 S.D. n = 3, control 80.1 ± 3.3 (E1 -3-MeS: control 46.5 ± 2.3), *p ≤ 0.05 (E1 -3-BuS), **p ≤ 0.01 (EtS, CamS, MeS), E1 -3-MePhS: mean of 2 estimates, control 71.3; for inhibition at 10 µM: MCF7, Table II, inhibition over control incubations, read-out: % reduction over control (% inhibition), oestrone-3-sulphonates
[3] = target: T2, steroid sulphatase in placental microsomes (Homo sapiens, UniProt P08842); experiment: Inhibition of Steroid Sulphatase Activity in Placental Microsomes ([6,7-^3 H]oestrone-3-sulphate substrate); type: biochemical; settings: 20 μM oestrone-3-sulphate, 100 μg/ml protein, 20 minutes, 37° C., calculated IC50
T2 construct: Sulphatase-positive human placenta from normal term pregnancies; from tissue; host or cells: human term placenta (Obstetric Ward, St. Mary's Hospital, London), 2000 g supernatant of the homogenate
T2 sequence (P08842 22-583): T1 sequence (P08842 22-583)
Experimental: Sulphatase-positive human placenta from normal term pregnancies (Obstetric Ward, St. Mary's Hospital, London) were thoroughly minced with scissors and washed once with cold phosphate buffer (pH 7.4, 50 mM) then re-suspended in cold phosphate buffer (5 ml/g tissue). Homogenisation was accomplished with an Ultra-Turrax homogeniser, using three 10 second bursts separated by 2 minute cooling periods in ice. Nuclei and cell debris were removed by centrifuging (4° C.) at 2000 g for 30 minutes and portions (2 ml) of the supernatent were stored at -20° C. The protein concentration of the supernatents was determined by the method of Bradford (Anal. Biochem., 72, 248-254 (1976)).
Incubations (1 ml) were carried out using a protein concentration of 100 μg/ml, substrate concentration of 20 μM [6,7-^3 H]oestrone-3-sulphate (specific activity 60 Ci/mmol from New England Nuclear, Boston, Mass., U.S.A.) and an incubation time of 20 minutes at 37° C. The following oestrone-3-phosphonates were added to separate samples at a range of concentrations individually adjusted to span the 50% inhibition level:
After incubation each sample was cooled and the medium (1 ml) was pipetted into separate tubes containing [^14 C]oestrone (7×10^3 dpm) (specific activity […] from Amersham International Radiochemical Centre, Amersham, U.K.). The mixture was shaken thoroughly for 30 seconds with toluene (5 ml). […] A portion (2 ml) of the organic phase was removed, evaporated and the ^3 H and ^14 C content of the residue determined by scintillation spectrometry. The mass of oestrone-3-sulphate hydrolysed was calculated from the ^3 H counts obtained (corrected for the volumes of medium and organic phase used, and for recovery of [^14 C]oestrone added) and the specific activity of substrate.
Results for steroid sulphatase activity are expressed in Table III as calculated IC50 values (i.e. the concentration of oestrone-3-phosphonate which produced 50% inhibition in relation to control). […]

[4] = Table IV, read-out: Steroid Sulphatase Activity in placental microsomes in the presence of oestrone-3-sulphonates (IC50)

Compound | Steroid Sulphatase Activity in MCF-7 cells in the presence of oestrone-3-sulphonates [2] [fmol/20 hr/10^6 cells] | inhibition at 10 µM [2] [%] | other results
C[C@]12CC[C@@H]3c4ccc(OP(=O)(O)c5ccccc5)cc4CC[C@H]3[C@@H]1CCC2=O [E1-3-PhP, oestrone-3-phenylphosphonate] |  |  | % reduction over control (% inhibition), oestrone-3-phosphonates ([1]; 10 μM, Table I, inhibition over incubations containing no oestrone-3-phosphonate): 70.3%; Steroid Sulphatase Activity in MCF-7 cells in the presence of oestrone-3-phosphonates ([1]; 10 μM, mean ± 1 S.D. n = 3, control 46.5 ± 2.3, ***p ≤ 0.001, E1 -3-HP: mean of 2 estimates, control 71.3): 13.8 ± 0.7 fmol/20 hr/10^6 cells
CC1(C)C2CCC1(CS(=O)(=O)Oc1ccc3c(c1)CC[C@@H]1[C@@H]3CC[C@]3(C)C(=O)CC[C@@H]13)C(=O)C2 (stereo partly drawn) [E1-3-CamS, oestrone-3-camphorylsulphonate] | 62.7 ± 1.8 | 21.7 | 
CCCCS(=O)(=O)Oc1ccc2c(c1)CC[C@@H]1[C@@H]2CC[C@]2(C)C(=O)CC[C@@H]12 [E1-3-BuS, oestrone-3-n-butylsulphonate] | 66.8 ± 3.3 | 16.6 | 
C[C@]12CC[C@@H]3c4ccc(O[PH](=O)O)cc4CC[C@H]3[C@@H]1CCC2=O [E1-3-HP, oestrone-3-hydrogen-phosphonate] |  |  | IC50 ([3]; Table III, read-out: Steroid Sulphatase Activity in placental microsomes in the presence of oestrone-3-phosphonates (IC50)): 5000 µM; inhibition at 10 µM ([1]; MCF7, Table I, inhibition over incubations containing no oestrone-3-phosphonate, read-out: % reduction over control (% inhibition), oestrone-3-phosphonates): 80.1%
CCS(=O)(=O)Oc1ccc2c(c1)CC[C@@H]1[C@@H]2CC[C@]2(C)C(=O)CC[C@@H]12 [E1-3-EtS, oestrone-3-ethylsulphonate] | 58.4 ± 1.9 | 27.1 | 
Cc1ccc(S(=O)(=O)Oc2ccc3c(c2)CC[C@@H]2[C@@H]3CC[C@]3(C)C(=O)CC[C@@H]23)cc1 [E1-3-MePhS, oestrone-3-p-toluenesulphonate] |  | 90.5 | IC50 [3, 4]: 130 µM
C[C@]12CC[C@@H]3c4ccc(OS(C)(=O)=O)cc4CC[C@H]3[C@@H]1CCC2=O [E1-3-MeS, oestrone-3-methylsulphonate] | 21.3 ± 3.5 | 54.2 | IC50 [3, 4]: 205 µM
